Test results: patent US4820734A, “Phenethylamine derivatives” (Hoffmann-La Roche Inc., priority 1983, dated 1989)
Where a name gives a salt, the structure may show the parent alone.

What was measured:
[1] = Writhing Test on the mouse (analgesic activity); assay type: in vivo; conditions: po
Text: (§1) As already mentioned earlier, the compounds of formula I and their pharmaceutically acceptable acid addition salts have valuable pharmacodynamic properties. In particular, they have interesting analgesic, anti-depressant and acute inflammation-inhibiting properties. […] In the following Table there are given the results determined in these tests for some representative members of the class of compound defined by general formula I. Moreover, the Table contains data concerning the acute toxicity of these compounds (LD50 after single oral administration to mice).

serotonin-uptake = assay: Serotonin-uptake Test (antidepressant activity; M. J. Kuhar et al.); assay type: biochemical
Text: as §1

[2] = Acute toxicity, LD50 after single oral administration to mice; conditions: mouse, in vivo
Text: as §1

Compound | ED50 [1] [mg/kg] | IC50 (serotonin-uptake) [nM] | LD50 [2] [mg/kg]
CN(C)C[C@@H](c1ccc(Cl)c(Cl)c1)[C@@H]1CCCC[C@@H]1O (relative stereo) [rac-(1S*)-cis-2-/(R*)-3,4-dichloro-α-[(dimethylamino)methyl]benzyl/cyclohexanol hydrochloride] | 9.7 | 21 | 62.6 to 125
CN(C)C[C@@H](c1ccc(Cl)cc1)[C@@H]1CCCC[C@@H]1O (relative stereo) [rac-(1S*)-cis-2-/(R*)-4-chloro-α-[(dimethylamino)methyl]benzyl/cyclohexanol hydrochloride] | 18 | 88 | 312 to 625
COc1ccc([C@H](CN(C)C)[C@@H]2CCCC[C@@H]2O)cc1 (relative stereo) [rac-(1S*)-cis-2-/(R*)-4-methoxy-α-[(dimethylamino)methyl]benzyl/cyclohexanol hydrochloride] | 23 | 120 | 250 to 500
COc1ccc([C@H](CN(C)C)[C@@H]2CCCC[C@@H]2O)cc1OC (relative stereo) [rac-(1S*)-cis-2-/(R*)-α-[(dimethylamino)methyl]-3,4-dimethoxybenzyl/cyclohexanol hydrochloride] | 10 | 100 | 500 to 1000
CN(C)C[C@@H](c1ccc(O)cc1)[C@@H]1CCCC[C@@H]1O (relative stereo) [rac-(1S*)-cis-2-/(R*)-α-[(dimethylamino)methyl]-4-hydroxybenzyl/cyclohexanol] | 8.4 | 180 | 500 to 1000
CN(C)C[C@@H](c1ccc(Cl)cc1)[C@@H]1CCCCC1=O (relative stereo) [rac-(2S*)-2-/(R*)-4-chloro-α-[(dimethylamino)methyl]benzyl/cyclohexanone hydrochloride] | 22 | 240 | 156 to 312
CN(C)C[C@@H](c1ccc(Cl)cc1)[C@@H]1CCCC[C@@H]1O [(+)-(1S)-cis-2-/(R)-4-chloro-α-[(dimethylamino)methyl]benzyl/cyclohexanol hydrochloride] | 14 | 110 | 125 to 250
CN(C)C[C@H](c1ccc(Cl)cc1)[C@H]1CCCC[C@H]1O [(-)-(1R)-cis-2-/(S)-4-chloro-α-[(dimethylamino)methyl]benzyl/cyclohexanol hydrochloride] | 19 | 55 | 125 to 250
